Experiments:
Assay type in all cases: functional
P2Y purinoceptor 2 = P2Y purinoceptor 2 (Homo sapiens, UniProt P41231); experiment: Agonist activity at human P2Y2 receptor expressed in human 1321N1 by FLIPR assay
P2Y purinoceptor 1 = P2Y purinoceptor 1 (Homo sapiens, UniProt P47900); experiment: Agonist activity at human cloned P2Y1 receptor expressed in human 1321N1 by FLIPR assay
P2Y purinoceptor 4 = P2Y purinoceptor 4 (Homo sapiens, UniProt P51582); experiment: Agonist activity at human cloned P2Y4 receptor expressed in human 1321N1 by FLIPR assay
Sequence of P2Y purinoceptor 4 (P51582 whole entry): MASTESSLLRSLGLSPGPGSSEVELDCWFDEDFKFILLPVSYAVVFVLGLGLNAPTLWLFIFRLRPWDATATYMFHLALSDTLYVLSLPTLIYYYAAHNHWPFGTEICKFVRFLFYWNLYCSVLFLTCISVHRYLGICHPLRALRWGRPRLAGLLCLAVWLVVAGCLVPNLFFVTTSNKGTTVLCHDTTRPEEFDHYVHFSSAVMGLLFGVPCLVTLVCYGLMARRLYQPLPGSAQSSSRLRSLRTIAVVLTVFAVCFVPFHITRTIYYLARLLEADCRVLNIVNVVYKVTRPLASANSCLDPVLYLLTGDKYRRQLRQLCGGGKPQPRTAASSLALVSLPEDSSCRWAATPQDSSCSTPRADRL

P2Y purinoceptor 6 = P2Y purinoceptor 6 (Homo sapiens, UniProt Q15077); experiment: Agonist activity at human cloned P2Y6 receptor expressed in human 1321N1 by FLIPR assay
Sequence of P2Y purinoceptor 6 (Q15077 whole entry): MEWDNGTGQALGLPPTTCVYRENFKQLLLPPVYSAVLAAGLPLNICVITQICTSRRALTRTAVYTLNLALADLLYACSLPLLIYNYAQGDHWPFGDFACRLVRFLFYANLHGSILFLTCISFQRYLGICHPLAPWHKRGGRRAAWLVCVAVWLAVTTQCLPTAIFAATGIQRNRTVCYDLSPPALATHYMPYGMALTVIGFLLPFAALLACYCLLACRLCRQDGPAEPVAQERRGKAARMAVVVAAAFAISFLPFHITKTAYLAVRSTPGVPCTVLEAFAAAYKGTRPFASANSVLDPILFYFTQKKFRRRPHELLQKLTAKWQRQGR

Sequence of P2Y purinoceptor 1 (P47900 whole entry): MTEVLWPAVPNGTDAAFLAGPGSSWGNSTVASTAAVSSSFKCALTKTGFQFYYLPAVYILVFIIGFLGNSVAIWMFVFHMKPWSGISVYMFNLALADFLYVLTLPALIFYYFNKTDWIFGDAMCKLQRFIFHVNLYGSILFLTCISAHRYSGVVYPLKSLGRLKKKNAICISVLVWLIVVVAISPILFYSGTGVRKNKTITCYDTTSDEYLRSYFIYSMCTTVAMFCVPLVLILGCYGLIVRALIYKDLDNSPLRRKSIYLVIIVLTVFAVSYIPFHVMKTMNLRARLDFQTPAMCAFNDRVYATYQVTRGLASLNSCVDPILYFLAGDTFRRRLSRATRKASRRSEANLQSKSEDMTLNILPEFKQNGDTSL
Sequence of P2Y purinoceptor 2 (P41231 whole entry): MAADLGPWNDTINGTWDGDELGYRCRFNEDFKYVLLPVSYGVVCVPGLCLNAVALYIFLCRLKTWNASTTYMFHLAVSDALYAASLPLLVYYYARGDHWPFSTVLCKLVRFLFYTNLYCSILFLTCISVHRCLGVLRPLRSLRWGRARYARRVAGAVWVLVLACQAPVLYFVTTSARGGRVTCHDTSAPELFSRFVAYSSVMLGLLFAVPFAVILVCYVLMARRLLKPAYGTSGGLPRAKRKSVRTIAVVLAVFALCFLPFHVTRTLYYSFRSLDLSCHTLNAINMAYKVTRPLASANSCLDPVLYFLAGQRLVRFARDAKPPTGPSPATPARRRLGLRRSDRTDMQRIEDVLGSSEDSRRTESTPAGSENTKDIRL

Q: How did the EC50 (P2Y purinoceptor 2) turn out when `COc1cc2ccn([C@@H]3O[C@H](COP(=O)(O)OP(=O)(O)OP(=O)(O)O)[C@@H](O)[C@H]3O)c(=O)c2cc1F` was run?
A: 6 nM

Q: Which EC50 (P2Y purinoceptor 2) does the source give for `CS(=O)(=O)c1ccc2ccn([C@@H]3O[C@H](COP(=O)(O)OP(=O)(O)OP(=O)(O)O)[C@@H](O)[C@H]3O)c(=O)c2c1` here?
A: 650 nM

Q: For `CN(C)c1cc2ccn([C@@H]3O[C@H](COP(=O)(O)OP(=O)(O)OP(=O)(O)O)[C@@H](O)[C@H]3O)c(=O)c2cc1F`, which EC50 (P2Y purinoceptor 2) is on record?
A: 4 nM

Q: How did the EC50 (P2Y purinoceptor 2) turn out when `O=c1c2c(ccn1[C@@H]1O[C@H](COP(=O)(O)OP(=O)(O)OP(=O)(O)O)[C@@H](O)[C@H]1O)CCCC2` was run?
A: 55 nM

Q: How did the EC50 (P2Y purinoceptor 2) turn out when `O=c1c2ccsc2ccn1[C@@H]1O[C@H](COP(=O)(O)OP(=O)(O)OP(=O)(O)O)[C@@H](O)[C@H]1O` was run?
A: 30 nM

Q: Which EC50 (P2Y purinoceptor 2) does the source give for `N#Cc1ccc2c(=O)n([C@@H]3O[C@H](COP(=O)(O)OP(=O)(O)OP(=O)(O)O)[C@@H](O)[C@H]3O)ccc2c1` here?
A: 88 nM

Q: Which results are given for `O=c1c2cc(Cl)ccc2ccn1[C@@H]1O[C@H](COP(=O)(O)OP(=O)(O)OP(=O)(O)O)[C@@H](O)[C@H]1O`?
A: EC50 (P2Y purinoceptor 2): 10 nM; EC50 (P2Y purinoceptor 1): > 20000 nM; EC50 (P2Y purinoceptor 4): 20000 nM; EC50 (P2Y purinoceptor 6): > 20000 nM

Q: How did the EC50 (P2Y purinoceptor 2) turn out when `N#Cc1ccc2ccn([C@@H]3O[C@H](COP(=O)(O)OP(=O)(O)OP(=O)(O)O)[C@@H](O)[C@H]3O)c(=O)c2c1` was run?
A: 12 nM

Q: With `CSc1ccc2ccn([C@@H]3O[C@H](COP(=O)(O)OP(=O)(O)OP(=O)(O)O)[C@@H](O)[C@H]3O)c(=O)c2c1` as the compound, how does the EC50 (P2Y purinoceptor 2) read?
A: 140 nM

Q: With `O=c1c2occc2ccn1[C@@H]1O[C@H](COP(=O)(O)OP(=O)(O)OP(=O)(O)O)[C@@H](O)[C@H]1O` as the compound, how does the EC50 (P2Y purinoceptor 2) read?
A: 221 nM

Q: Which EC50 (P2Y purinoceptor 2) does the source give for `Cc1cn([C@@H]2O[C@H](COP(=O)(O)OP(=O)(O)OP(=O)(O)O)[C@@H](O)[C@H]2O)c(=O)c2ccccc12` here?
A: 17500 nM

Q: Which EC50 (P2Y purinoceptor 2) does the source give for `Cc1ccc2c(=O)n([C@@H]3O[C@H](COP(=O)(O)OP(=O)(O)OP(=O)(O)O)[C@@H](O)[C@H]3O)ccc2c1` here?
A: 35 nM

Q: `Cc1ccc2ccn([C@@H]3O[C@H](COP(=O)(O)OP(=O)(O)OP(=O)(O)O)[C@@H](O)[C@H]3O)c(=O)c2c1` was tested. Which EC50 (P2Y purinoceptor 2) did it give?
A: 148 nM

Q: How did the EC50 (P2Y purinoceptor 2) turn out when `O=c1c2ccc(F)cc2ccn1[C@@H]1O[C@H](COP(=O)(O)OP(=O)(O)OP(=O)(O)O)[C@@H](O)[C@H]1O` was run?
A: 77 nM

Q: For `O=c1c2ccc(Cl)cc2ccn1[C@@H]1O[C@H](COP(=O)(O)OP(=O)(O)OP(=O)(O)O)[C@@H](O)[C@H]1O`, which EC50 (P2Y purinoceptor 2) is on record?
A: 541 nM

Q: Which EC50 (P2Y purinoceptor 2) does the source give for `Cc1cccc2ccn([C@@H]3O[C@H](COP(=O)(O)OP(=O)(O)OP(=O)(O)O)[C@@H](O)[C@H]3O)c(=O)c12` here?
A: 85 nM

Q: Which results are given for `O=c1c2cc(F)c(F)cc2ccn1[C@@H]1O[C@H](COP(=O)(O)OP(=O)(O)OP(=O)(O)O)[C@@H](O)[C@H]1O`?
A: EC50 (P2Y purinoceptor 2): 16 nM; EC50 (P2Y purinoceptor 1): > 20000 nM; EC50 (P2Y purinoceptor 4): > 20000 nM; EC50 (P2Y purinoceptor 6): > 20000 nM

Q: Which results are given for `O=c1c2ccccc2ccn1[C@@H]1O[C@H](COP(=O)(O)OP(=O)(O)OP(=O)(O)O)[C@@H](O)[C@H]1O`?
A: EC50 (P2Y purinoceptor 2): 31 nM; EC50 (P2Y purinoceptor 1): > 20000 nM; EC50 (P2Y purinoceptor 4): 7040 nM; EC50 (P2Y purinoceptor 6): > 20000 nM

Q: `O=c1c2ccoc2ccn1[C@@H]1O[C@H](COP(=O)(O)OP(=O)(O)OP(=O)(O)O)[C@@H](O)[C@H]1O` was tested. Which EC50 (P2Y purinoceptor 2) did it give?
A: 68 nM

Q: `Cc1cccc2c(=O)n([C@@H]3O[C@H](COP(=O)(O)OP(=O)(O)OP(=O)(O)O)[C@@H](O)[C@H]3O)ccc12` was tested. Which EC50 (P2Y purinoceptor 2) did it give?
A: 557 nM

Q: How did the EC50 (P2Y purinoceptor 2) turn out when `O=c1c2cc(Cl)c(Cl)cc2ccn1[C@@H]1O[C@H](COP(=O)(O)OP(=O)(O)OP(=O)(O)O)[C@@H](O)[C@H]1O` was run?
A: 13 nM

Q: How did the EC50 (P2Y purinoceptor 2) turn out when `O=c1c2cc(F)ccc2ccn1[C@@H]1O[C@H](COP(=O)(O)OP(=O)(O)OP(=O)(O)O)[C@@H](O)[C@H]1O` was run?
A: 5 nM

Q: And the EC50 (P2Y purinoceptor 1)?
A: > 20000 nM

Q: And the EC50 (P2Y purinoceptor 4)?
A: 3580 nM

Q: And the EC50 (P2Y purinoceptor 6)?
A: > 20000 nM

Q: For `COc1ccc2ccn([C@@H]3O[C@H](COP(=O)(O)OP(=O)(O)OP(=O)(O)O)[C@@H](O)[C@H]3O)c(=O)c2c1`, which EC50 (P2Y purinoceptor 2) is on record?
A: 26 nM

Q: Which EC50 (P2Y purinoceptor 2) does the source give for `CSc1cc2ccn([C@@H]3O[C@H](COP(=O)(O)OP(=O)(O)OP(=O)(O)O)[C@@H](O)[C@H]3O)c(=O)c2cc1F` here?
A: 3 nM

Q: What about the EC50 (P2Y purinoceptor 1) of the same compound?
A: > 20000 nM

Q: What about the EC50 (P2Y purinoceptor 4) of the same compound?
A: > 20000 nM

Q: And the EC50 (P2Y purinoceptor 6)?
A: > 20000 nM

Q: With `O=c1c2cccnc2ccn1[C@@H]1O[C@H](COP(=O)(O)OP(=O)(O)OP(=O)(O)O)[C@@H](O)[C@H]1O` as the compound, how does the EC50 (P2Y purinoceptor 2) read?
A: 35 nM

Q: For `O=c1ccn([C@@H]2O[C@H](COP(=O)(O)OP(=O)(O)OP(=O)(O)OP(=O)(O)OC[C@H]3O[C@@H](n4ccc(=O)[nH]c4=O)[C@H](O)[C@@H]3O)[C@@H](O)[C@H]2O)c(=O)[nH]1` [DIQUAFOSOL], which EC50 (P2Y purinoceptor 1) is on record?
A: > 20000 nM

Q: With `O=c1ccn([C@@H]2O[C@H](COP(=O)(O)OP(=O)(O)OP(=O)(O)O)[C@@H](O)[C@H]2O)c(=O)[nH]1` [URIDINE TRIPHOSPHATE] as the compound, how does the EC50 (P2Y purinoceptor 2) read?
A: 7 nM

Q: What about the EC50 (P2Y purinoceptor 1) of the same compound?
A: > 2000 nM

Q: And the EC50 (P2Y purinoceptor 4)?
A: 39 nM

Q: And the EC50 (P2Y purinoceptor 6)?
A: 424 nM

From ChEMBL document CHEMBL1138369, “Novel nucleotide triphosphates as potent P2Y2 agonists” (Bioorg Med Chem Lett, 2007)
